Data on one substance can be found in patent publication US9642874B2, “Compositions of selenoorganic compounds and methods of use thereof” (Alltech, Inc., priority 2014, dated 2017).

In the experiment the test system is G6pc. In words: G6pc mRNA expression (QRT-PCR) in AML-12 cells. The class given is cell-based, mouse. The following applies: insulin 10 and 100 nM. On the procedure: For RNA analysis of insulin receptor (Insr), insulin like growth factor receptor (Igf1r), and Glucose-6-Phosphatase (G6pc), AML-12 cells were amplified in ITS, Dex and FBS-containing DMEM/F12 media, and cultured on 24-well (6.7×10^4 cells/well) plates in 10% FBS ITS-free DMEM/F12 media with or without Dex overnight. These cells were treated with control (water) or various compounds (diluted in 10% FBS ITS-free DMEM/F12 media with or without Dex) for 6 hours, 24 hours, or 48 hours.
In some experiments, the AML-12 cells were washed twice with PBS after the compound treatments for 24 hours, and then incubated with selenium compounds (150 or 300 ppb of each compound) in the presence or absence of insulin (10 or 100 nM), 0.1 mM 8-CPT (Sigma), or 0.5 μM Dex in serum-free, glucose/phenol red-free DMEM media supplemented with 20 mM lactose and 2 mM pyruvate, and 15 mM HEPES (glucose-production media) for another 6 hours. After treatments, cell media were collected and subjected to glucose assays using Abcam glucose assay kit according to the manufacturer's protocol. […]
Total RNA from these cells was isolated using Trizol (Invitrogen) according to the manufacturer's protocol, and then incubated with DNase I to remove any potential contaminated genomic DNA. […] Three to six samples were analyzed in each treatment group. […]

Regarding “insulin: insulin (10 or 100 nM, Sigma) used as comparator and cotreatment”, where the note is “6 hours, FBS/ITS/Dex-free media”, the G6pc expression result was “significantly inhibited G6pc expression”. In addition, the “8-CPT/Dex-induced G6pc expression” value (vs 8-CPT/Dex group) was “significantly decreased 8-CPT/Dex-induced G6pc expression”.
